Laboratory results as given in patent US10583137B2, “Triazole DAGLα inhibitors” (THE SCRIPPS RESEARCH INSTITUTE, priority 2015, dated 2020).
Where two headings read alike, the source gives them in different places.

Legend:
[1] = target: DAGLα (hDAGLα-FLAG) (Homo sapiens (Human), UniProt Q9Y4D2); test: competitive ABPP, membrane proteome of transfected HEK293T cells; format: biochemical; conditions: read-out: DAGLα IC50
How it was run: (§1)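 HEK293T membrane proteome (1 mg/ml) expressing FLAG-tagged human DAGLα or DAGLβ, treated 30 min at room temperature with compound, then 30 min with HT-01 or FP-Rh probe (1 μM). Bands separated by SDS-PAGE were normalized to DMSO for IC50 by variable-slope fit.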

[2] = target: DAGLβ (hDAGLβ-FLAG) (Homo sapiens (Human), UniProt Q8NCG7); test: as above; format: biochemical; conditions: read-out: DAGLβ IC50
Sequence of DAGLβ (hDAGLβ-FLAG) (Q8NCG7 whole entry): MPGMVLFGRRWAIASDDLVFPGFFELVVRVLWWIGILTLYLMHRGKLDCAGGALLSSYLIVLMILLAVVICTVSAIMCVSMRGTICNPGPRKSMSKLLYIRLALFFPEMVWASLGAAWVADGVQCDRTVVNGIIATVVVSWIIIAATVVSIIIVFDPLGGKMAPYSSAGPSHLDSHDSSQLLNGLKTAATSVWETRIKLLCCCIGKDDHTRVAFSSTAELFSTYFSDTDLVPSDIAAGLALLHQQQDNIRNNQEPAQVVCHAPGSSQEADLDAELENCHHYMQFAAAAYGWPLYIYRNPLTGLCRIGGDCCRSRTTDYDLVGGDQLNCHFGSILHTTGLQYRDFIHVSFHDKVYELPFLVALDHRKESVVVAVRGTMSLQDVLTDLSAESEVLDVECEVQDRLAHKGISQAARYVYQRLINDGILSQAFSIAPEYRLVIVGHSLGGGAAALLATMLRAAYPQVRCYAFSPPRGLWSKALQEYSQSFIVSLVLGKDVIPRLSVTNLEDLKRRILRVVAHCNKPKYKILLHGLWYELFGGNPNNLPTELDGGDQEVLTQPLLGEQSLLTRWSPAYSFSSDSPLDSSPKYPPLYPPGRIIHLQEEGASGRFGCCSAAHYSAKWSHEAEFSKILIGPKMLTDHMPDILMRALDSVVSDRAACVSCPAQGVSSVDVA
How it was run: as §1

[3] = tested on: serine hydrolases; test: ABPP selectivity against serine hydrolases in mouse brain proteome; format: biochemical
Experimental: Compounds 14 and 17 were evaluated for activity and selectivity against endogenous DAGLs and other serine hydrolases in the mouse brain proteome using a ABPP of mouse brain proteome assay as described in Example 16. These experiments were performed using three different activity-based probesprobe compound 58 (targets DAGLα and DAGLβ), HT-01 (targets DAGLα and DAGLβ), and FP-Rh (broad-spectrum serine hydrolase-directed probe fluorophosphonate-rhodamine).
(§2) Data represent average values±SEM; n=3 per group. […] Compounds 14 and 17 had minimal and negligible binding, respectively, to cannabinoid CB1 (CB1R) and CB2 (CB2R) receptors as measured with a radioligand binding assay (IC50 values>1 μM) (data not shown).
The selectivity of compounds 14 and 17 for additional serine hydrolases was assessed using probe FP-Rh (0.5 μM, 20 min; data not shown). Representative mouse brain serine hydrolases detected by FP-Rh were FAAH, MAGL, and ABHD6.

[4] = target: cannabinoid CB1 (CB1R) receptor (Homo sapiens (Human), UniProt P21554); test: radioligand binding assay
Sequence of cannabinoid CB1 (CB1R) receptor (P21554 whole entry): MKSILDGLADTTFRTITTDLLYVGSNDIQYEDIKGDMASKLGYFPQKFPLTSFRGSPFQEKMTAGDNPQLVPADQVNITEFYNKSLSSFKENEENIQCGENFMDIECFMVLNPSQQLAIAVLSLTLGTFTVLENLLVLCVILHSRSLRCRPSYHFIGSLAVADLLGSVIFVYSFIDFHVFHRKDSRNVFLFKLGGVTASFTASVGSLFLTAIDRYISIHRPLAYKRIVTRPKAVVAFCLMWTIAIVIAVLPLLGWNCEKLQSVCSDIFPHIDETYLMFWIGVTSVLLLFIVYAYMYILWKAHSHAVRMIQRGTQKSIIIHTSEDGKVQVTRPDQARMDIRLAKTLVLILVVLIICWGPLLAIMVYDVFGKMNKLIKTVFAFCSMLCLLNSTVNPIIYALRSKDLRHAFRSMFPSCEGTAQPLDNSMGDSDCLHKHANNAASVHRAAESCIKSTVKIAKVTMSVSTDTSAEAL
Experimental: as §2

[5] = target: cannabinoid CB2 (CB2R) receptor (Homo sapiens (Human), UniProt P34972); test: radioligand binding assay
Sequence of cannabinoid CB2 (CB2R) receptor (P34972 whole entry): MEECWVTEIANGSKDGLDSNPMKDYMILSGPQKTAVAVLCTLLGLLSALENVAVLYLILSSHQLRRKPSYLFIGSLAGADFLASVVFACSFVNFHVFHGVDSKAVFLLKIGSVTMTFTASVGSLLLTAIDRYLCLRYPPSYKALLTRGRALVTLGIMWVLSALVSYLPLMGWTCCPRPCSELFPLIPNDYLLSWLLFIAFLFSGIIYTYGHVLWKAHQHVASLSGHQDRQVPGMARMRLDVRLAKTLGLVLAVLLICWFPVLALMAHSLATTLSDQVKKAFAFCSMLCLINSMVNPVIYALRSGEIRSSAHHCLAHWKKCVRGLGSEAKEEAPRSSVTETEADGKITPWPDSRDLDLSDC
Experimental: as §2

[6] = target: ABHD6 (Mus musculus (Mouse), UniProt Q8R2Y0); test: in vivo ABPP coupled to quantitative mass spectrometry (FP-biotin, ReDiMe); conditions: brain proteomes of treated mice
Sequence of ABHD6 (Q8R2Y0 whole entry): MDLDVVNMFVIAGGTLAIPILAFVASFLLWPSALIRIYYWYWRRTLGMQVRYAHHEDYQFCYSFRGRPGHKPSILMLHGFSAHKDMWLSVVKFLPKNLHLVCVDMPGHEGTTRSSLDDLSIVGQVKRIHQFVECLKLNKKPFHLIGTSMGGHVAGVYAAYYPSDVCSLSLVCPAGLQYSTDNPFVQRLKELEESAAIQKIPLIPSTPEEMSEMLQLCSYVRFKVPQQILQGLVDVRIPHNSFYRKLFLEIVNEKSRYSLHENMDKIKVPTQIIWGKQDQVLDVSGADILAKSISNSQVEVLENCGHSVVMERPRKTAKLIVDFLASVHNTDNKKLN
Experimental: (§3) The extent of these target profiles were confirmed by performing ABPP coupled to high-resolution, quantitative mass spectrometry (MS). Briefly, brain proteomes from compound and vehicle-treated mice were incubated with the serine hydrolase directed activity-based probe FP-biotin, and probe-labeled enzymes were enriched by streptavidin chromatography, digested on bead with trypsin, and the resulting tryptic peptides modified by reductive dimethylation (ReDiMe) of lysine residues using isotopically heavy and light formaldehyde, respectively. In these experiments, inhibited serine hydrolases are identified as enzymes showing low heavy/light ReDiMe ratios.

[7] = target: CES1C (Mus musculus (Mouse), UniProt P23953); test: as above; conditions: brain proteomes of treated mice
Sequence of CES1C (P23953 19-554): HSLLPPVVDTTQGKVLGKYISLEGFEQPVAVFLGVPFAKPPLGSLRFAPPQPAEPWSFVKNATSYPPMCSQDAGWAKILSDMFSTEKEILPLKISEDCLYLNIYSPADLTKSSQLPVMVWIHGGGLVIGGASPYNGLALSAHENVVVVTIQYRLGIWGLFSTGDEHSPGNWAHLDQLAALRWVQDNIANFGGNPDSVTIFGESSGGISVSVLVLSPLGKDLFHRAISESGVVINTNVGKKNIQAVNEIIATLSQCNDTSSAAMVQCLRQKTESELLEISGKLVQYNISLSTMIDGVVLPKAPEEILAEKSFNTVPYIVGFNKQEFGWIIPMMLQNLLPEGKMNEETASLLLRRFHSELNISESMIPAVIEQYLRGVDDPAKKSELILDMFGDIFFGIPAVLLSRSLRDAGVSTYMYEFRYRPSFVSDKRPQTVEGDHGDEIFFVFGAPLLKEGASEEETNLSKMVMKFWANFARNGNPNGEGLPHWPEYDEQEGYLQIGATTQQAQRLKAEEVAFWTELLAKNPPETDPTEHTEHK
Experimental: as §3

[8] = target: T1, DAGLα (Mus musculus (Mouse), UniProt Q6WQJ1); test: as above; conditions: brain proteomes of treated mice
T1 sequence (Q6WQJ1 whole entry): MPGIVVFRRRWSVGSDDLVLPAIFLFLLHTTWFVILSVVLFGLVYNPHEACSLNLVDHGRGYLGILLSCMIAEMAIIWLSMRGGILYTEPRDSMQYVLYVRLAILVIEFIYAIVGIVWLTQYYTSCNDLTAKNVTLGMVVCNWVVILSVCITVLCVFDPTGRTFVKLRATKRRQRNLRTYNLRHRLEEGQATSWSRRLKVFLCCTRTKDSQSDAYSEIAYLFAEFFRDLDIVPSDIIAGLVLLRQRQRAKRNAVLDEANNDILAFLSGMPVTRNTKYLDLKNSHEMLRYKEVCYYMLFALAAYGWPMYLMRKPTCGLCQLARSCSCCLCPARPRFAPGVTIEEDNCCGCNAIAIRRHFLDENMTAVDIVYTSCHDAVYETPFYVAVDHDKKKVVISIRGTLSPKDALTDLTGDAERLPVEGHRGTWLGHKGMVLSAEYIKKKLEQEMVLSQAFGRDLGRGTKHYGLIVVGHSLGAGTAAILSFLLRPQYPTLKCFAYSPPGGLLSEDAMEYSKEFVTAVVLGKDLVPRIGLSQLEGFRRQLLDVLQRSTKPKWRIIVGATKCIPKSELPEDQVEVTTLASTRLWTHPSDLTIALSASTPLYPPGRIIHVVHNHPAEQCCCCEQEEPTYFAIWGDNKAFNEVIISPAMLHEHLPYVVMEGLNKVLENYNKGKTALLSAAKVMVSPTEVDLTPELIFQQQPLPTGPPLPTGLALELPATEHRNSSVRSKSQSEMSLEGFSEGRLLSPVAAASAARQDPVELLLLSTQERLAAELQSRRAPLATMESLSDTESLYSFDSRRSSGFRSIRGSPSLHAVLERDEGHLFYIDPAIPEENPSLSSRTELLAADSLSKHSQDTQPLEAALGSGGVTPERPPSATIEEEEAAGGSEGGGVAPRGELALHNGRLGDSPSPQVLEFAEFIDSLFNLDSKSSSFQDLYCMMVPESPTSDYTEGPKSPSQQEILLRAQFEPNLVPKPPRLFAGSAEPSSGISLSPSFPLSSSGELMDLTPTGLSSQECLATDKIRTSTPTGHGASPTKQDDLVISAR
Experimental: as §3

[9] = tested on: DAGLs; test: time-course of DAGL inhibition and recovery in mice, competitive ABPP with compound 58 probe; format: in vivo, mouse; conditions: 50 mg/kg
Experimental: (§4) Inhibition of DAGL in mice with DAGL compounds 14 and 17 was investigated as a function of time as determined by competitive ABPP using the compound 58 probe (1 μM, 30 min).

[10] = tested on: brain 2-AG and other DAGL-regulated lipids; test: brain lipid profiles of treated mice by LC-MS; format: in vivo, mouse; conditions: for brain 2-AG levels / brain AA / brain AEA / brain C18:1/C20:4 DAG / brain PGD2 / brain PGE2 / brain SAG: 50 mg/kg i.p., 4 hr post-dosing
Experimental: Brain lipid profiles of mice treated with compounds 14, 17 and control compound 22.
Mice were treated with 50 mg/kg compound (i.p.), followed by lipid profiling using LC-MS at a 4 hr post-dosing. […] This depletion of brain 2-AG in compound 14 and 17-treated mice was dose-dependent (data not shown) and was observed within 2 h after injection. […] The changes in each lipid species were dose-dependent and were absent in compound 22 treated mice (FIGS. 6C, E, G, I, and K).

[11] = tested on: DSI at CA1 pyramidal neuron synapses; test: depolarization-induced suppression of inhibition (DSI) in hippocampal slices; conditions: bath application 30 min
Experimental: DSI was evaluated at CA1 pyramidal neuron synapses in hippocampal slices. DSI was induced in vehicle-treated hippocampal slices by applying a brief depolarization while evoking […] through stimulation of synaptic inhibitory inputs (FIG. 7C). Bath application of compound 14 (10 μM) and compound 17 (1 μM), but not compound 22 (10 μM), for 30 min before starting electrophysiological recordings blocked hippocampal DSI (FIGS. 7C and D).

[12] = target: PAFAH2 (Mus musculus (Mouse), UniProt Q8VDG7); test: in vivo ABPP coupled to quantitative mass spectrometry (FP-biotin, ReDiMe); conditions: brain proteomes of treated mice
Sequence of PAFAH2 (Q8VDG7 whole entry): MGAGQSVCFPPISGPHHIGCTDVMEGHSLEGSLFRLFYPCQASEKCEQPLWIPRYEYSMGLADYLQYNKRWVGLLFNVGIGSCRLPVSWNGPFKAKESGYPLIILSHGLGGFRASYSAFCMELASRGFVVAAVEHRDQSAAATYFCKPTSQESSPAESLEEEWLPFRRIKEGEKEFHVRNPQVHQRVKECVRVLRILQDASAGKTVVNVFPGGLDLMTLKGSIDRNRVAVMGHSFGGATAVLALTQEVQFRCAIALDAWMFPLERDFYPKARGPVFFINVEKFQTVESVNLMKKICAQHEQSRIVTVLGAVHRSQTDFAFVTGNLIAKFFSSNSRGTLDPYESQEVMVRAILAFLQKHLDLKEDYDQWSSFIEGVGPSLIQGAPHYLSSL
Experimental: as §3

[13] = target: T1, DAGLα; test: time-course of DAGL inhibition and recovery in mice, competitive ABPP with compound 58 probe; format: in vivo; conditions: 3 mg/kg
Experimental: as §4

[14] = target: DAGLβ (Mus musculus (Mouse), UniProt Q91WC9); test: as above; format: in vivo; conditions: 3 mg/kg
Experimental: as §4

Sequence of DAGLα (hDAGLα-FLAG) (Q9Y4D2 whole entry): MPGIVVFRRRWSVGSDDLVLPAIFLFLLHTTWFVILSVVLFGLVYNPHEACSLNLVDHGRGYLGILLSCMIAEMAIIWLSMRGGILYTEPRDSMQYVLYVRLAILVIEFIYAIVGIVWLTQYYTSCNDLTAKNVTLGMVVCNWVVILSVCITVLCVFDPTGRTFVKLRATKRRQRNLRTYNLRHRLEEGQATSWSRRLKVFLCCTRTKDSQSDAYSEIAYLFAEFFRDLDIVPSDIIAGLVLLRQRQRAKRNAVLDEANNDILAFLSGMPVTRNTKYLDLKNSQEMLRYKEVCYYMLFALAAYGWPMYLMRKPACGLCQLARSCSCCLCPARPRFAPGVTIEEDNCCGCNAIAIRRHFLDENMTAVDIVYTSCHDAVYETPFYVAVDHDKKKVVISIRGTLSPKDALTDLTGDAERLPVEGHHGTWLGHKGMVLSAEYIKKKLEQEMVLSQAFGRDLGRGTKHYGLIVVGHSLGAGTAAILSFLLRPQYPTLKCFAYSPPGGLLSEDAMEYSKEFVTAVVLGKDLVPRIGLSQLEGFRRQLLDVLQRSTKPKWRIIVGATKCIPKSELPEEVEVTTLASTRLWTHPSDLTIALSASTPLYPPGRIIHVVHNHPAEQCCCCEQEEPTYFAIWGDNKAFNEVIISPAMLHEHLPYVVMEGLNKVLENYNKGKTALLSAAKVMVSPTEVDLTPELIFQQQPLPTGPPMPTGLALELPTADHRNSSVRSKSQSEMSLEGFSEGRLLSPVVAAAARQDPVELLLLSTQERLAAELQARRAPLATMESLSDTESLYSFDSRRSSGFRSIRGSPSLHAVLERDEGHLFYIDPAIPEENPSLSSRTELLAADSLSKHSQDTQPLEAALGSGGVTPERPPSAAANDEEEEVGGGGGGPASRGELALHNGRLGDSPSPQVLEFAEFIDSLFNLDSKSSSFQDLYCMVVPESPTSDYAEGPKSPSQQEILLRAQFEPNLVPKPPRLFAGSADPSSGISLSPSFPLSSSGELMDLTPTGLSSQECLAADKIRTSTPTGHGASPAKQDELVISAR

Structure (SMILES)	IC50 [1]	IC50 [2]	selectivity, detectable serine hydrolase off-targets [3]	heavy/light ReDiMe ratio, ABHD6 (off-target) [6]	heavy/light ReDiMe ratio, CES1C (off-target) [7]	inhibition of DAGLα by quantitative MS [8]	duration of sustained inhibition of DAGLs [9]	DAGL activity at 24-hr post dosing [9]	time after injection at which depletion of brain 2-AG was observed [10]	brain 2-AG levels [10]	brain AA [10]	brain AEA [10]	brain C18:1/C20:4 DAG [10]	brain PGD2 [10]	brain PGE2 [10]	brain SAG [10]	further results
C#CCO[C@@H]1CC[C@H](Cc2ccccc2)N(C(=O)n2ncc(C(O)(c3ccc(F)cc3)c3ccc(F)cc3)n2)C1 [Compound 14, ((2R,5R)-2-Benzyl-5-(prop-2-ynyloxy)piperidin-1-yl)(4-(bis(4-fluorophenyl)(hydroxy)methyl)-2H-1,2,3-triazol-2-yl)methanone]	≤ 400 nM	≤ 400 nM	selective for DAGLs, with the only detectable serine hydrolase off-targets being ABHD6 and PLA2G7	< 0.5	< 0.5	complete inhibition	up to 8 hr	partial recovery	≤ 2 h	reduced	reductions	reductions	elevations	reductions	reductions	elevations	IC50 [4]: > 1000 nM; IC50 [5]: > 1000 nM; effect on hippocampal DSI ([11]; 10 μM): blocked
CC(C)(C)OC(=O)N1CCN(C(=O)n2cc(-c3ccc(OC(F)(F)F)cc3)nn2)C(Cc2ccccc2)C1 (stereo not drawn) [Compound 17, tert-Butyl 3-benzyl-4-(4-(4-(trifluoromethoxy)phenyl)-1H-1,2,3-triazole-1-carbonyl)piperazine-1-carboxylate]	≤ 400 nM	≤ 400 nM	selective for DAGLs, with the only detectable serine hydrolase off-targets being ABHD6 and PLA2G7	< 0.5	< 0.5	complete inhibition	up to 8 hr	partial recovery	≤ 2 h	reduced	reductions	reductions	elevations	reductions	reductions	elevations	IC50 ([4]; radioligand binding assay, read-out: IC50, CB1R binding): > 1000 nM; IC50 ([5]; radioligand binding assay, read-out: IC50, CB2R binding): > 1000 nM; heavy/light ReDiMe ratio, PAFAH2 (off-target) [12]: < 0.5; time by which DAGLα enzyme activity recovered [13]: ≤ 4 h; time to substantial inhibition of DAGLα after administration [13]: ≤ 30 min; inhibition of DAGLβ [14]: inhibited; effect on hippocampal DSI ([11]; 1 μM): blocked
